Test results: PubChem BioAssay (NCI)
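Interpolation was linear, between the two tested concentrations surrounding the appropriate level; five concentrations were tested over 48 hours in 96-well plates. The concentration for 50% growth inhibition is given as GI50. TGI denotes the concentration required for complete inhibition of growth.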

How the values were obtained:
Assay in all cases: DTP human tumour cell line panel, 48 h
SF-295 CNS = tested on: SF-295 CNS
PC-3 prostate = tested on: PC-3 prostate
HT29 colon = tested on: HT29 colon
HCT-15 colon = tested on: HCT-15 colon
DU-145 prostate = tested on: DU-145 prostate
BT-549 breast = tested on: BT-549 breast
MOLT-4 leukemia = tested on: MOLT-4 leukemia
SF-268 CNS = tested on: SF-268 CNS
UO-31 renal = tested on: UO-31 renal
MCF7 breast = tested on: MCF7 breast
SR leukemia = tested on: SR leukemia
SK-MEL-2 melanoma = tested on: SK-MEL-2 melanoma
HL-60(TB) leukemia = tested on: HL-60(TB) leukemia
SK-OV-3 ovarian = tested on: SK-OV-3 ovarian
A498 renal = tested on: A498 renal
NCI/ADR-RES ovarian = tested on: NCI/ADR-RES ovarian
OVCAR-3 ovarian = tested on: OVCAR-3 ovarian
ACHN renal = tested on: ACHN renal
CAKI-1 renal = tested on: CAKI-1 renal
TK-10 renal = tested on: TK-10 renal
CCRF-CEM leukemia = tested on: CCRF-CEM leukemia
EKVX NSCLC = tested on: EKVX NSCLC
RPMI-8226 leukemia = tested on: RPMI-8226 leukemia
SNB-75 CNS = tested on: SNB-75 CNS
COLO 205 colon = tested on: COLO 205 colon
OVCAR-4 ovarian = tested on: OVCAR-4 ovarian
NCI-H226 lung = tested on: NCI-H226 lung
RXF 393 renal = tested on: RXF 393 renal
K-562 leukemia = tested on: K-562 leukemia
OVCAR-5 ovarian = tested on: OVCAR-5 ovarian
SF-539 CNS = tested on: SF-539 CNS
786-0 renal = tested on: 786-0 renal
HCC-2998 colon = tested on: HCC-2998 colon
SNB-19 CNS = tested on: SNB-19 CNS
HCT-116 colon = tested on: HCT-116 colon
U251 CNS = tested on: U251 CNS
A549 NSCLC = tested on: A549 NSCLC
SW-620 colon = tested on: SW-620 colon
MDA-MB-231 breast = tested on: MDA-MB-231 breast
NCI-H460 lung = tested on: NCI-H460 lung
M14 melanoma = tested on: M14 melanoma
HOP-62 NSCLC = tested on: HOP-62 NSCLC
OVCAR-8 ovarian = tested on: OVCAR-8 ovarian
SN12C renal = tested on: SN12C renal
IGROV1 ovarian = tested on: IGROV1 ovarian
MALME-3M melanoma = tested on: MALME-3M melanoma
UACC-62 melanoma = tested on: UACC-62 melanoma
HOP-92 NSCLC = tested on: HOP-92 NSCLC
SK-MEL-28 melanoma = tested on: SK-MEL-28 melanoma
NCI-H23 lung = tested on: NCI-H23 lung
KM12 colon = tested on: KM12 colon
LOX IMVI melanoma = tested on: LOX IMVI melanoma
SK-MEL-5 melanoma = tested on: SK-MEL-5 melanoma
NCI-H522 lung = tested on: NCI-H522 lung
HS 578T breast = tested on: HS 578T breast
UACC-257 melanoma = tested on: UACC-257 melanoma

`C=CC[PH+](c1ccccc1)c1ccccc1.C=CC[PH+](c1ccccc1)c1ccccc1.[Pt+2].[S-]c1nc2ccccc2[nH]1.[S-]c1nc2ccccc2[nH]1` was tested, and the GI50 (SF-295 CNS) was 2820 nM, the TGI (SF-295 CNS) was 8440 nM and the GI50 (PC-3 prostate) was 1620 nM. The TGI (PC-3 prostate) was 5580 nM, the GI50 (HT29 colon) was 2620 nM and the TGI (HT29 colon) was > 100000 nM. For the same compound, the GI50 (HCT-15 colon) was 6340 nM, the TGI (HCT-15 colon) was > 100000 nM and the GI50 (DU-145 prostate) was 3330 nM. For the same compound, the TGI (DU-145 prostate) was 42800 nM, the GI50 (BT-549 breast) was 2110 nM and the TGI (BT-549 breast) was 5540 nM. The GI50 (MOLT-4 leukemia) was 2870 nM, the TGI (MOLT-4 leukemia) was > 100000 nM and the GI50 (SF-268 CNS) was 2770 nM. For the same compound, the TGI (SF-268 CNS) was > 100000 nM, the GI50 (UO-31 renal) was 2580 nM and the TGI (UO-31 renal) was 36500 nM. The GI50 (MCF7 breast) was 2570 nM, the TGI (MCF7 breast) was 9910 nM and the GI50 (SR leukemia) was 2710 nM. For the same compound, the TGI (SR leukemia) was > 100000 nM, the GI50 (SK-MEL-2 melanoma) was 2250 nM and the TGI (SK-MEL-2 melanoma) was 5360 nM. For the same compound, the GI50 (HL-60(TB) leukemia) was 2510 nM, the TGI (HL-60(TB) leukemia) was 7320 nM and the GI50 (SK-OV-3 ovarian) was 3160 nM. For the same compound, the TGI (SK-OV-3 ovarian) was 27400 nM, the GI50 (A498 renal) was 1720 nM and the TGI (A498 renal) was 4980 nM. For the same compound, the GI50 (NCI/ADR-RES ovarian) was 47100 nM, the TGI (NCI/ADR-RES ovarian) was > 100000 nM and the GI50 (OVCAR-3 ovarian) was 1900 nM. For the same compound, the TGI (OVCAR-3 ovarian) was 5160 nM, the GI50 (ACHN renal) was 3890 nM and the TGI (ACHN renal) was > 100000 nM. The GI50 (CAKI-1 renal) was 2540 nM, the TGI (CAKI-1 renal) was 12800 nM and the GI50 (TK-10 renal) was 3290 nM. For the same compound, the TGI (TK-10 renal) was 67400 nM, the GI50 (CCRF-CEM leukemia) was 1900 nM and the TGI (CCRF-CEM leukemia) was > 100000 nM. The GI50 (EKVX NSCLC) was 2360 nM, the TGI (EKVX NSCLC) was > 100000 nM and the GI50 (RPMI-8226 leukemia) was 401 nM. The TGI (RPMI-8226 leukemia) was 3220 nM, the GI50 (SNB-75 CNS) was 1200 nM and the TGI (SNB-75 CNS) was 3890 nM. The GI50 (COLO 205 colon) was 2020 nM, the TGI (COLO 205 colon) was 6560 nM and the GI50 (OVCAR-4 ovarian) was 2560 nM. For the same compound, the TGI (OVCAR-4 ovarian) was > 100000 nM, the GI50 (NCI-H226 lung) was 1950 nM and the TGI (NCI-H226 lung) was 4480 nM. The GI50 (RXF 393 renal) was 2610 nM, the TGI (RXF 393 renal) was 7060 nM and the GI50 (K-562 leukemia) was 620 nM. For the same compound, the TGI (K-562 leukemia) was > 100000 nM, the GI50 (OVCAR-5 ovarian) was 2140 nM and the TGI (OVCAR-5 ovarian) was 5420 nM.

`COc1ccc([C@@H]2[C@@H](Cl)C(=O)N2c2cc(OC)c(OC)c(OC)c2)cc1C` was tested, and the GI50 (SF-539 CNS) was 29.3 nM, the TGI (SF-539 CNS) was 14600 nM and the GI50 (786-0 renal) was 64.3 nM. For the same compound, the TGI (786-0 renal) was 21600 nM, the GI50 (SF-295 CNS) was 50.1 nM and the TGI (SF-295 CNS) was 39700 nM. For the same compound, the GI50 (HCC-2998 colon) was 347 nM, the TGI (HCC-2998 colon) was 58400 nM and the GI50 (SNB-19 CNS) was 53.5 nM. The TGI (SNB-19 CNS) was > 100000 nM, the GI50 (HCT-116 colon) was 40.1 nM and the TGI (HCT-116 colon) was 11400 nM. For the same compound, the GI50 (U251 CNS) was 44 nM, the TGI (U251 CNS) was 17500 nM and the GI50 (A549 NSCLC) was 273 nM. The TGI (A549 NSCLC) was > 100000 nM, the GI50 (PC-3 prostate) was 63.3 nM and the TGI (PC-3 prostate) was > 100000 nM. The GI50 (HT29 colon) was 32.7 nM, the TGI (HT29 colon) was 11900 nM and the GI50 (HCT-15 colon) was 53.5 nM. For the same compound, the TGI (HCT-15 colon) was > 100000 nM, the GI50 (SW-620 colon) was 46.2 nM and the TGI (SW-620 colon) was 34500 nM. The GI50 (DU-145 prostate) was 40.5 nM, the TGI (DU-145 prostate) was 236 nM and the GI50 (MDA-MB-231 breast) was 163 nM. The TGI (MDA-MB-231 breast) was 42100 nM, the GI50 (NCI-H460 lung) was 313 nM and the TGI (NCI-H460 lung) was 14400 nM. The GI50 (M14 melanoma) was 30.2 nM, the TGI (M14 melanoma) was 17500 nM and the GI50 (BT-549 breast) was 71.7 nM. The TGI (BT-549 breast) was 1130 nM, the GI50 (MOLT-4 leukemia) was 181 nM and the TGI (MOLT-4 leukemia) was > 100000 nM. It also gave a GI50 (SF-268 CNS) of 137 nM, a TGI (SF-268 CNS) of 25000 nM and a GI50 (UO-31 renal) of 172 nM. The TGI (UO-31 renal) was 47600 nM, the GI50 (HOP-62 NSCLC) was 53.5 nM and the TGI (HOP-62 NSCLC) was > 100000 nM. The GI50 (OVCAR-8 ovarian) was 50.4 nM, the TGI (OVCAR-8 ovarian) was 77500 nM and the GI50 (MCF7 breast) was 43.5 nM. For the same compound, the TGI (MCF7 breast) was > 100000 nM, the GI50 (SR leukemia) was 39.7 nM and the TGI (SR leukemia) was 54400 nM. For the same compound, the GI50 (SK-MEL-2 melanoma) was 49.6 nM, the TGI (SK-MEL-2 melanoma) was 19600 nM and the GI50 (SN12C renal) was 99.9 nM. For the same compound, the TGI (SN12C renal) was 21900 nM, the GI50 (IGROV1 ovarian) was 84.9 nM and the TGI (IGROV1 ovarian) was 72400 nM. The GI50 (HL-60(TB) leukemia) was 27.2 nM, the TGI (HL-60(TB) leukemia) was 76.7 nM and the GI50 (MALME-3M melanoma) was 17800 nM. The TGI (MALME-3M melanoma) was 64800 nM, the GI50 (SK-OV-3 ovarian) was 84.1 nM and the TGI (SK-OV-3 ovarian) was > 100000 nM. It also gave a GI50 (UACC-62 melanoma) of 60.7 nM, a TGI (UACC-62 melanoma) of 41100 nM and a GI50 (HOP-92 NSCLC) of 144 nM. The TGI (HOP-92 NSCLC) was 24900 nM, the GI50 (SK-MEL-28 melanoma) was 11000 nM and the TGI (SK-MEL-28 melanoma) was > 100000 nM. For the same compound, the GI50 (A498 renal) was 33.5 nM, the TGI (A498 renal) was 314 nM and the GI50 (NCI/ADR-RES ovarian) was 42.6 nM. For the same compound, the TGI (NCI/ADR-RES ovarian) was > 100000 nM, the GI50 (OVCAR-3 ovarian) was 24.1 nM and the TGI (OVCAR-3 ovarian) was 58.1 nM. For the same compound, the GI50 (NCI-H23 lung) was 85.3 nM, the TGI (NCI-H23 lung) was > 100000 nM and the GI50 (ACHN renal) was 121 nM. The TGI (ACHN renal) was 30300 nM, the GI50 (TK-10 renal) was 10500 nM and the TGI (TK-10 renal) was 79900 nM. It also gave a GI50 (KM12 colon) of 41.9 nM, a TGI (KM12 colon) of 17100 nM and a GI50 (CCRF-CEM leukemia) of 46.5 nM. For the same compound, the TGI (CCRF-CEM leukemia) was > 100000 nM, the GI50 (EKVX NSCLC) was 65.9 nM and the TGI (EKVX NSCLC) was > 100000 nM. For the same compound, the GI50 (RPMI-8226 leukemia) was 64.1 nM, the TGI (RPMI-8226 leukemia) was 28300 nM and the GI50 (LOX IMVI melanoma) was 69.2 nM. For the same compound, the TGI (LOX IMVI melanoma) was 17000 nM, the GI50 (SNB-75 CNS) was 35.5 nM and the TGI (SNB-75 CNS) was 37900 nM. The GI50 (SK-MEL-5 melanoma) was 55.3 nM, the TGI (SK-MEL-5 melanoma) was 1340 nM and the GI50 (COLO 205 colon) was 38.6 nM. The TGI (COLO 205 colon) was 159 nM, the GI50 (OVCAR-4 ovarian) was 769 nM and the TGI (OVCAR-4 ovarian) was > 100000 nM. For the same compound, the GI50 (NCI-H226 lung) was 13200 nM, the TGI (NCI-H226 lung) was 73900 nM and the GI50 (RXF 393 renal) was 31.3 nM. For the same compound, the TGI (RXF 393 renal) was 20600 nM, the GI50 (K-562 leukemia) was 45.6 nM and the TGI (K-562 leukemia) was > 100000 nM. The GI50 (NCI-H522 lung) was 22.4 nM, the TGI (NCI-H522 lung) was 71.7 nM and the GI50 (HS 578T breast) was 49 nM. The TGI (HS 578T breast) was 77400 nM, the GI50 (OVCAR-5 ovarian) was 305 nM and the TGI (OVCAR-5 ovarian) was > 100000 nM. The GI50 (UACC-257 melanoma) was 15700 nM and the TGI (UACC-257 melanoma) was 97300 nM.
